From patent US10206394B2, “Herbicidal compounds” (Syngenta Participations AG, priority 2014, dated 2019)
Where two headings read alike, the source gives them in different places.

Experiments:
Assay in all cases: Glasshouse assay for herbicidal activity (pre- and post-emergence), percentage phytotoxicity
Assay type in all cases: in vivo
Avena fatua (AVEFA) = settings: Avena fatua
Outline: (§1)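 Percent injury was estimated by eye on a scale where 0% means no damage and 100% complete damage. Ratings came 15 DAA post-emergence and 20 DAA pre-emergence, with plants held under 16 h light and 65% humidity at 24/18 °C or 20/16 °C day/night.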

[1] = tested on: Alopecurus myosuroides (ALOMY); settings: Alopecurus myosuroides
Outline: as §1

Lolium perenne (LOLPE) = settings: Lolium perenne
Outline: as §1

[2] = tested on: Echinochloa crus-galli (ECHCG); settings: Echinochloa crus-galli
Outline: as §1

[3] = post-emergence, 360 h, Rate 250 g/ha, post-emergence, assessed visually 15 DAA, 100%=total damage, 0%=no damage, read-out: Post-emergence herbicidal activity (percentage phytotoxicity) AVEFA POST
[4] = pre-emergence, 480 h, Rate 250 g/ha, pre-emergence, assessed visually 20 DAA, 100%=total damage, 0%=no damage, read-out: Pre-emergence herbicidal activity (percentage phytotoxicity) AVEFA PRE
[5] = post-emergence, 360 h, Rate 250 g/ha, post-emergence, assessed visually 15 DAA, 100%=total damage, 0%=no damage, read-out: Post-emergence herbicidal activity (percentage phytotoxicity) ALOMY POST
[6] = pre-emergence, 480 h, Rate 250 g/ha, pre-emergence, assessed visually 20 DAA, 100%=total damage, 0%=no damage, read-out: Pre-emergence herbicidal activity (percentage phytotoxicity) ALOMY PRE
[7] = post-emergence, 360 h, Rate 250 g/ha, post-emergence, assessed visually 15 DAA, 100%=total damage, 0%=no damage, read-out: Post-emergence herbicidal activity (percentage phytotoxicity) LOLPE POST
[8] = pre-emergence, 480 h, Rate 250 g/ha, pre-emergence, assessed visually 20 DAA, 100%=total damage, 0%=no damage, read-out: Pre-emergence herbicidal activity (percentage phytotoxicity) LOLPE PRE
[9] = post-emergence, 360 h, Rate 250 g/ha, post-emergence, assessed visually 15 DAA, 100%=total damage, 0%=no damage, read-out: Post-emergence herbicidal activity (percentage phytotoxicity) ECHCG POST
[10] = pre-emergence, 480 h, Rate 250 g/ha, pre-emergence, assessed visually 20 DAA, 100%=total damage, 0%=no damage, read-out: Pre-emergence herbicidal activity (percentage phytotoxicity) ECHCG PRE
[11] = post-emergence, 360 h, POST-emergence, rate 250 g/ha, visual score 15 DAA (100%=total damage, 0%=no damage), read-out: Post-emergence herbicidal activity (percentage phytotoxicity) AVEFA POST
[12] = pre-emergence, 480 h, PRE-emergence, rate 250 g/ha, visual score 20 DAA (100%=total damage, 0%=no damage), read-out: Pre-emergence herbicidal activity (percentage phytotoxicity) AVEFA PRE
[13] = post-emergence, 360 h, POST-emergence, rate 250 g/ha, visual score 15 DAA (100%=total damage, 0%=no damage), read-out: Post-emergence herbicidal activity (percentage phytotoxicity) ALOMY POST
[14] = pre-emergence, 480 h, PRE-emergence, rate 250 g/ha, visual score 20 DAA (100%=total damage, 0%=no damage), read-out: Pre-emergence herbicidal activity (percentage phytotoxicity) ALOMY PRE
[15] = post-emergence, 360 h, POST-emergence, rate 250 g/ha, visual score 15 DAA (100%=total damage, 0%=no damage), read-out: Post-emergence herbicidal activity (percentage phytotoxicity) LOLPE POST
[16] = pre-emergence, 480 h, PRE-emergence, rate 250 g/ha, visual score 20 DAA (100%=total damage, 0%=no damage), read-out: Pre-emergence herbicidal activity (percentage phytotoxicity) LOLPE PRE
[17] = post-emergence, 360 h, POST-emergence, rate 250 g/ha, visual score 15 DAA (100%=total damage, 0%=no damage), read-out: Post-emergence herbicidal activity (percentage phytotoxicity) ECHCG POST
[18] = pre-emergence, 480 h, PRE-emergence, rate 250 g/ha, visual score 20 DAA (100%=total damage, 0%=no damage), read-out: Pre-emergence herbicidal activity (percentage phytotoxicity) ECHCG PRE

| SMILES | pest or weed control at 250 g/ha (Avena fatua (AVEFA); [3]) [%] | pest or weed control at 250 g/ha (Avena fatua (AVEFA); [4]) [%] | pest or weed control at 250 g/ha [1, 5] [%] | pest or weed control at 250 g/ha [1, 6] [%] | pest or weed control at 250 g/ha (Lolium perenne (LOLPE); [7]) [%] | pest or weed control at 250 g/ha (Lolium perenne (LOLPE); [8]) [%] | pest or weed control at 250 g/ha [2, 9] [%] | pest or weed control at 250 g/ha [2, 10] [%] | pest or weed control at 250 g/ha (Avena fatua (AVEFA); [11]) [%] | pest or weed control at 250 g/ha (Avena fatua (AVEFA); [12]) [%] | pest or weed control at 250 g/ha [1, 13] [%] | pest or weed control at 250 g/ha [1, 14] [%] | pest or weed control at 250 g/ha (Lolium perenne (LOLPE); [15]) [%] | pest or weed control at 250 g/ha (Lolium perenne (LOLPE); [16]) [%] | pest or weed control at 250 g/ha [2, 17] [%] | pest or weed control at 250 g/ha [2, 18] [%] | also measured |
| --- | --- | --- | --- | --- | --- | --- | --- | --- | --- | --- | --- | --- | --- | --- | --- | --- | --- |
| C#Cc1cc(C)c(C2C(=O)CC(CC(=O)NC(C)C)C2=O)c(C)c1 (stereo not shown) [Compound A42] | 100 | 100 | 100 | 100 | 90 | 100 | 80 | 100 |  |  |  |  |  |  |  |  |  |
| C=Cc1cc(-c2ncc(F)cn2)cc(C)c1C1C(=O)CC(CC(=O)NC(C)(C)C)C1=O (stereo not shown) [Compound B404] |  |  |  |  |  |  |  |  |  |  |  |  |  |  |  |  | pest or weed control at 250 g/ha (Avena fatua (AVEFA); post-emergence, 360 h, Rate 250 g/ha, post-emergence, visual assessment 15 DAA, 100%=total damage, 0%=no damage, read-out: Post-emergence herbicidal activity (percentage phytotoxicity) AVEFA POST): 100%; pest or weed control at 250 g/ha (Avena fatua (AVEFA); pre-emergence, 480 h, Rate 250 g/ha, pre-emergence, visual assessment 20 DAA, 100%=total damage, 0%=no damage, read-out: Pre-emergence herbicidal activity (percentage phytotoxicity) AVEFA PRE): 70%; pest or weed control at 250 g/ha ([1]; post-emergence, 360 h, Rate 250 g/ha, post-emergence, visual assessment 15 DAA, 100%=total damage, 0%=no damage, read-out: Post-emergence herbicidal activity (percentage phytotoxicity) ALOMY POST): 90%; pest or weed control at 250 g/ha ([1]; pre-emergence, 480 h, Rate 250 g/ha, pre-emergence, visual assessment 20 DAA, 100%=total damage, 0%=no damage, read-out: Pre-emergence herbicidal activity (percentage phytotoxicity) ALOMY PRE): 80%; pest or weed control at 250 g/ha (Lolium perenne (LOLPE); post-emergence, 360 h, Rate 250 g/ha, post-emergence, visual assessment 15 DAA, 100%=total damage, 0%=no damage, read-out: Post-emergence herbicidal activity (percentage phytotoxicity) LOLPE POST): 100%; pest or weed control at 250 g/ha (Lolium perenne (LOLPE); pre-emergence, 480 h, Rate 250 g/ha, pre-emergence, visual assessment 20 DAA, 100%=total damage, 0%=no damage, read-out: Pre-emergence herbicidal activity (percentage phytotoxicity) LOLPE PRE): 80%; pest or weed control at 250 g/ha ([2]; post-emergence, 360 h, Rate 250 g/ha, post-emergence, visual assessment 15 DAA, 100%=total damage, 0%=no damage, read-out: Post-emergence herbicidal activity (percentage phytotoxicity) ECHCG POST): 100%; pest or weed control at 250 g/ha ([2]; pre-emergence, 480 h, Rate 250 g/ha, pre-emergence, visual assessment 20 DAA, 100%=total damage, 0%=no damage, read-out: Pre-emergence herbicidal activity (percentage phytotoxicity) ECHCG PRE): 90% |
| CCNC(=O)CC1CC(=O)C(c2c(C)cc(-c3ncc(F)cn3)cc2C)C1=O (stereo not shown) [Compound B277] |  |  |  |  |  |  |  |  | 100 | 100 | 100 | 100 | 100 | 100 | 100 | 100 |  |
| COc1ccc(CNC(=O)CC2CC(=O)C(c3c(C)cc(OCC(F)(F)F)cc3C)C2=O)cc1 (stereo not shown) [Compound B206] |  |  |  |  |  |  |  |  | 90 | 70 | 90 | 80 | 90 | 80 | 90 | 90 |  |
| CC#Cc1cc(C)c(C2C(=O)CC(CC(=O)NC(C)C)C2=O)c(CC)c1 (stereo not shown) [Compound A54] | 100 | 100 | 100 | 100 | 100 | 100 | 100 | 100 |  |  |  |  |  |  |  |  |  |
